Source: publication PMC10647589, “Heterogeneous Cellular Response of Primary and Metastatic Human Gastric Adenocarcinoma Cell Lines to Magnoflorine and Its Additive Interaction with Docetaxel” (International Journal of Molecular Sciences, 2023)

Assays:
Assay type in all cases: cell-based
NCI-N87 human GC cells = test: Cell cycle analysis (PI, flow cytometry); conditions: 72 h
Description: (§1) Human GC cells ACC-201, AGS, MKN-74 and NCI-N87 were seeded in 6-well plates and allowed to adhere overnight. On the following day, the growth medium was removed, and the cells were treated with indicated concentrations of MGN (10–40 µg/mL) for 72 h. After that, the cells were washed with phosphate-buffered saline (PBS) and fixed in 70% ethanol at 4 °C overnight. Then, the cells were washed with PBS and stained with propidium iodide, utilizing PI/RNase Staining Buffer (BD Biosciences, Heidelberg, Germany) for 15 min in the dark. Cell distribution in different stages of the cell cycle was performed through the use of the FACS CaliburTM flow cytometer (BD Biosciences, Mountain View, CA, USA).

AGS human GC cells [1] = test: Cell cycle analysis (PI, flow cytometry); conditions: 72 h
Description: as §1

MKN-74 human GC cells [2] = test: Cell cycle analysis (PI, flow cytometry); conditions: 72 h
Description: as §1

ACC-201 human GC cells [3] = test: Cell cycle analysis (PI, flow cytometry); conditions: 72 h
Description: as §1

AGS human GC cells [4] = test: Active caspase-3 analysis (flow cytometry); conditions: 72 h
Description: (§2) Human GC cells ACC-201, AGS, MKN-74 and NCI-N87 were seeded in 6-well plates and allowed to adhere overnight. On the following day, the growth medium was replaced with fresh medium, and the cells were exposed to indicated concentrations of MGN (10–40 µg/mL) for 72 h. Apoptotic cells were analyzed using PE Active Caspase-3 Apoptosis Kit (BD Biosciences) according to the manufacturer’s instructions. Briefly, the cells were collected, washed with cold PBS and then incubated in Cytofix/Cytoperm Solution for 20 min on ice. After two washes, the cells were incubated with Active Caspase-3 Antibody in Perm/Wash Buffer for 30 min at room temperature. Finally, the cells were resuspended in Perm/Wash Buffer and quantitative analysis of 10,000 cells per sample was performed through the use of FACS CaliburTM flow cytometer (BD Biosciences, Mountain View, CA, USA).

MKN-74 human GC cells [5] = test: Active caspase-3 analysis (flow cytometry); conditions: MKN-74, MGN 10 µg/mL, 72 h
Description: as §2

ACC-201 human GC cells [6] = test: Active caspase-3 analysis (flow cytometry); conditions: ACC-201, MGN 10 µg/mL, 72 h
Description: as §2

SMILES: COc1ccc2c(c1O)-c1c(O)c(OC)cc3c1[C@H](C2)[N+](C)(C)CC3 [MGN, magnoflorine]
- cells in G1 phase (NCI-N87 human GC cells; NCI-N87, MGN 10 µg/mL): 69.39% ± 3.658
- cells in G2 phase (NCI-N87 human GC cells; NCI-N87, MGN 10 µg/mL): 16.52% ± 2.770
- cells in S phase (NCI-N87 human GC cells; NCI-N87, MGN 10 µg/mL): 11.81% ± 3.808
- cells in subG1 phase (NCI-N87 human GC cells; NCI-N87, MGN 10 µg/mL): 2.41% ± 2.189
- cells in G1 phase (NCI-N87 human GC cells; NCI-N87, MGN 20 µg/mL): 70.17% ± 2.905
- cells in G2 phase (NCI-N87 human GC cells; NCI-N87, MGN 20 µg/mL): 15.56% ± 2.419
- cells in S phase (NCI-N87 human GC cells; NCI-N87, MGN 20 µg/mL): 10.44% ± 6.685
- cells in subG1 phase (NCI-N87 human GC cells; NCI-N87, MGN 20 µg/mL): 3.93% ± 2.591
- cells in G1 phase (NCI-N87 human GC cells; NCI-N87, MGN 30 µg/mL): 67.45% ± 3.535
- cells in G2 phase (NCI-N87 human GC cells; NCI-N87, MGN 30 µg/mL): 16.21% ± 1.874
- cells in S phase (NCI-N87 human GC cells; NCI-N87, MGN 30 µg/mL): 10.12% ± 7.739
- cells in subG1 phase (NCI-N87 human GC cells; NCI-N87, MGN 30 µg/mL): 6.33% ± 2.772
- cells in G1 phase (NCI-N87 human GC cells; NCI-N87, MGN 40 µg/mL): 64.37% ± 3.651
- cells in G2 phase (NCI-N87 human GC cells; NCI-N87, MGN 40 µg/mL): 17.06% ± 2.426
- cells in S phase (NCI-N87 human GC cells; NCI-N87, MGN 40 µg/mL): 9.24% ± 5.603
- cells in subG1 phase (NCI-N87 human GC cells; NCI-N87, MGN 40 µg/mL): 9.47% ± 1.163
- effect on cell cycle progression (NCI-N87 human GC cells; NCI-N87, MGN 10–40 µg/mL): Minor changes in cell cycle progression
- cells in G1 phase (AGS human GC cells [1]; MGN 10 µg/mL): 58.09% ± 8.195
- cells in G2 phase (AGS human GC cells [1]; MGN 10 µg/mL): 23.35% ± 12.110
- cells in S phase (AGS human GC cells [1]; MGN 10 µg/mL): 17.62% ± 3.599
- cells in subG1 phase (AGS human GC cells [1]; MGN 10 µg/mL): 1.19% ± 2.437
- cells in G1 phase (AGS human GC cells [1]; MGN 20 µg/mL): 53.06% ± 12.980
- cells in G2 phase (AGS human GC cells [1]; MGN 20 µg/mL): 24.06% ± 16.000
- cells in S phase (AGS human GC cells [1]; MGN 20 µg/mL): 21.07% ± 2.593
- cells in subG1 phase (AGS human GC cells [1]; MGN 20 µg/mL): 2.17% ± 2.519
- cells in G1 phase (AGS human GC cells [1]; MGN 30 µg/mL): 43.08% ± 14.330
- cells in G2 phase (AGS human GC cells [1]; MGN 30 µg/mL): 31.77% ± 17.630
- cells in S phase (AGS human GC cells [1]; MGN 30 µg/mL): 21.55% ± 2.265
- cells in subG1 phase (AGS human GC cells [1]; MGN 30 µg/mL): 2.17% ± 3.000
- cells in G1 phase (AGS human GC cells [1]; MGN 40 µg/mL): 38.15% ± 13.350
- cells in G2 phase (AGS human GC cells [1]; MGN 40 µg/mL): 39.34% ± 15.720
- cells in S phase (AGS human GC cells [1]; MGN 40 µg/mL): 19.89% ± 2.653
- cells in subG1 phase (AGS human GC cells [1]; MGN 40 µg/mL): 2.98% ± 2.448
- effect on cell cycle progression (AGS human GC cells [1]; MGN 10–40 µg/mL): induced the G2/M phase arrest
- cells in G1 phase (MKN-74 human GC cells [2]; MKN-74, MGN 10 µg/mL): 69.07% ± 1.886
- cells in G2 phase (MKN-74 human GC cells [2]; MKN-74, MGN 10 µg/mL): 16.23% ± 1.928
- cells in S phase (MKN-74 human GC cells [2]; MKN-74, MGN 10 µg/mL): 13.36% ± 0.622
- cells in subG1 phase (MKN-74 human GC cells [2]; MKN-74, MGN 10 µg/mL): 1.60% ± 2.688
- cells in G1 phase (MKN-74 human GC cells [2]; MKN-74, MGN 20 µg/mL): 73.81% ± 4.227
- cells in G2 phase (MKN-74 human GC cells [2]; MKN-74, MGN 20 µg/mL): 14.14% ± 2.076
- cells in S phase (MKN-74 human GC cells [2]; MKN-74, MGN 20 µg/mL): 9.97% ± 1.867
- cells in subG1 phase (MKN-74 human GC cells [2]; MKN-74, MGN 20 µg/mL): 2.28% ± 2.818
- cells in G1 phase (MKN-74 human GC cells [2]; MKN-74, MGN 30 µg/mL): 65.90% ± 3.533
- cells in G2 phase (MKN-74 human GC cells [2]; MKN-74, MGN 30 µg/mL): 22.92% ± 2.455
- cells in S phase (MKN-74 human GC cells [2]; MKN-74, MGN 30 µg/mL): 7.72% ± 1.822
- cells in subG1 phase (MKN-74 human GC cells [2]; MKN-74, MGN 30 µg/mL): 3.59% ± 2.787
- cells in G1 phase (MKN-74 human GC cells [2]; MKN-74, MGN 40 µg/mL): 50.20% ± 5.303
- cells in G2 phase (MKN-74 human GC cells [2]; MKN-74, MGN 40 µg/mL): 35.94% ± 6.691
- cells in S phase (MKN-74 human GC cells [2]; MKN-74, MGN 40 µg/mL): 8.25% ± 2.280
- cells in subG1 phase (MKN-74 human GC cells [2]; MKN-74, MGN 40 µg/mL): 5.60% ± 1.002
- effect on cell cycle progression (MKN-74 human GC cells [2]; MKN-74, MGN 10 and 20 µg/mL vs. 40 µg/mL): induced G1/S or G2/M phase cell cycle arrest
- cells in G1 phase (ACC-201 human GC cells [3]; ACC-201, MGN 10 µg/mL): 62.76% ± 2.434
- cells in G2 phase (ACC-201 human GC cells [3]; ACC-201, MGN 10 µg/mL): 9.96% ± 3.707
- cells in S phase (ACC-201 human GC cells [3]; ACC-201, MGN 10 µg/mL): 8.74% ± 3.423
- cells in subG1 phase (ACC-201 human GC cells [3]; ACC-201, MGN 10 µg/mL): 18.52% ± 1.414
- cells in G1 phase (ACC-201 human GC cells [3]; ACC-201, MGN 20 µg/mL): 57.23% ± 2.112
- cells in G2 phase (ACC-201 human GC cells [3]; ACC-201, MGN 20 µg/mL): 8.34% ± 4.237
- cells in S phase (ACC-201 human GC cells [3]; ACC-201, MGN 20 µg/mL): 8.33% ± 1.647
- cells in subG1 phase (ACC-201 human GC cells [3]; ACC-201, MGN 20 µg/mL): 26.06% ± 1.399
- cells in G1 phase (ACC-201 human GC cells [3]; ACC-201, MGN 30 µg/mL): 49.55% ± 1.820
- cells in G2 phase (ACC-201 human GC cells [3]; ACC-201, MGN 30 µg/mL): 5.87% ± 5.399
- cells in S phase (ACC-201 human GC cells [3]; ACC-201, MGN 30 µg/mL): 6.16% ± 1.340
- cells in subG1 phase (ACC-201 human GC cells [3]; ACC-201, MGN 30 µg/mL): 38.50% ± 1.886
- cells in G1 phase (ACC-201 human GC cells [3]; ACC-201, MGN 40 µg/mL): 39.27% ± 3.408
- cells in G2 phase (ACC-201 human GC cells [3]; ACC-201, MGN 40 µg/mL): 3.74% ± 1.615
- cells in S phase (ACC-201 human GC cells [3]; ACC-201, MGN 40 µg/mL): 5.61% ± 1.874
- cells in subG1 phase (ACC-201 human GC cells [3]; ACC-201, MGN 40 µg/mL): 51.43% ± 2.072
- % cells with active caspase-3 (AGS human GC cells [4]; MGN 10 µg/mL): 2.390 ± 0.411%
- % cells with active caspase-3 (AGS human GC cells [4]; MGN 20 µg/mL): 4.172 ± 0.422%
- % cells with active caspase-3 (MKN-74 human GC cells [5]): 2.633 ± 0.069%
- % cells with active caspase-3 (ACC-201 human GC cells [6]): 6.770 ± 0.866%
